Holding throughout (format): in vivo
Test [1] has as its system Diabrotica Balteata (Corn Root Worm). As to the kind of experiment: whole plant or invertebrate. The note with it: 96 h, read-out: effect in at least one of the two categories (mortality or growth inhibition). As to the method:
Example B3: Diabrotica Balteata (Corn Root Worm)
Maize sprouts, placed on an agar layer in 24-well microtiter plates were treated with aqueous test solutions prepared from 10,000 ppm DMSO stock solutions by spraying. After drying, the plates were infested with L2 larvae (6 to 10 per well). The samples were assessed for mortality and growth inhibition in comparison to untreated samples 4 days after infestation.

For test [2], the system named is Spodoptera littoralis (Egyptian Cotton Leaf Worm). As to the kind of experiment: Spodoptera littoralis cotton leaf disc spray test. The note with it: foliar, 72 h, application rate 200 ppm, L1 larvae, 3 days after infestation, read-out: control (at least one of mortality, anti-feedant effect, growth inhibition). As to the method:
Spodoptera littoralis (Egyptian Cotton Leaf Worm)
Cotton leaf discs were placed on agar in 24-well microtiter plates and sprayed with aqueous test solutions prepared from 10,000 ppm DMSO stock solutions. After drying, the leaf discs were infested with five L1 larvae. The samples were assessed for mortality, anti-feedant effect, and growth inhibition in comparison to untreated samples 3 days after infestation. Control of Spodoptera littoralis by a test sample is when at least one of mortality, anti-feedant effect, and growth inhibition is higher than the untreated sample.

Test [3] has as its system Plutella xylostella (Diamond Back Moth). As to the kind of experiment: whole plant or invertebrate. The conditions noted are these: 120 h, application rate 200 ppm, L2 larvae, 5 days after infestation, read-out: effect in at least one of the two categories (mortality or growth inhibition). On the procedure:
Example B2: Plutella xylostella (Diamond Back Moth)
24-well microtiter plates with artificial diet were treated with aqueous test solutions prepared from 10,000 ppm DMSO stock solutions by pipetting. After drying, the plates were infested with L2 larvae (10 to 15 per well). The samples were assessed for mortality and growth inhibition in comparison to untreated samples 5 days after infestation.

Where [4] appears, read: application rate 200 ppm, L2 larvae, 4 days after infestation.

Read-outs that look alike come from different tables or passages of the source.

Take `Fc1ccccc1-n1nc(-c2ccc(Cl)cc2)nc1CN1CCC(C(F)(F)F)CC1` [Example 1.5]: in test [1] (setting [4]), the percent effect (mortality or growth inhibition) at 200 ppm is at least 80%.

As for `Cc1ccccc1-c1nc(CN2CCC(c3ncccn3)CC2)n(-c2ccccc2F)n1` [Example 1.36], in test [1] (setting [4]), the percent effect (mortality or growth inhibition) at 200 ppm was at least 80%. Regarding `Cc1cccc(-c2nc(CN3CCC(c4ncccn4)CC3)n(-c3ccccc3F)n2)c1` [Example 1.37], the percent control (mortality, anti-feedant effect or growth inhibition) at 200 ppm in test [2] is at least 80%. Further, in test [1] (setting [4]), the percent effect (mortality or growth inhibition) at 200 ppm was at least 80%. As to `NC(=O)C1CCN(Cc2nc(-c3ccc(Cl)cc3)nn2-c2ccccc2F)CC1` [Example 1.47], the percent control (mortality, anti-feedant effect or growth inhibition) at 200 ppm in test [2] was at least 80%. Further, the percent effect (mortality or growth inhibition) at 200 ppm in test [1] (setting [4]) was at least 80%. As to `Clc1ccc(-c2nc(CN3CCC(c4ncccn4)CC3)n(-c3ccc(Cl)c(Cl)c3)n2)cc1` [Example 1.50], the percent effect (mortality or growth inhibition) at 200 ppm in test [1] (setting [4]) was at least 80%. On the same count and under the same terms, in the case of `Cc1cccc(-n2nc(-c3ccc(Cl)cc3)nc2CN2CCC(c3ncccn3)CC2)c1` [Example 1.51] it was at least 80%. For `Cc1ccc(-n2nc(-c3ccc(Cl)cc3)nc2CN2CCC(c3ncccn3)CC2)cc1` [Example 1.52], in test [2], the percent control (mortality, anti-feedant effect or growth inhibition) at 200 ppm is at least 80%. For the same compound, the percent effect (mortality or growth inhibition) at 200 ppm in test [1] (setting [4]) was at least 80%.

Regarding `Clc1ccc(-c2nc(CN3CCC(c4ncccn4)CC3)n(-c3cccc(Br)c3)n2)cc1` [Example 1.57], the percent effect (mortality or growth inhibition) at 200 ppm in test [1] (setting [4]) is at least 80%. On the same count and under the same terms, as for `Clc1ccc(-c2nc(CN3CCC(c4ncccn4)CC3)n(C3CCC3)n2)cc1` [Example 1.58], the figure is at least 80%; as for `CC(C)n1nc(-c2ccc(Cl)cc2)nc1CN1CCC(c2ncccn2)CC1` [Example 1.60], at least 80%.

For the compound `Clc1ccc(-c2nc(CN3CCC(c4ncccn4)CC3)n(-c3ccc(Cl)cc3Cl)n2)cc1` [Example 1.65], the percent control (mortality, anti-feedant effect or growth inhibition) at 200 ppm in test [2] is at least 80%. The percent effect (mortality or growth inhibition) at 200 ppm in test [1] (setting [4]) is at least 80%. `Clc1ccc(-c2nc(CN3CCC(c4ncccn4)CC3)n(-c3cccc(Cl)c3)n2)cc1` [Example 1.69]: the percent effect (mortality or growth inhibition) at 200 ppm in test [1] (setting [4]) is at least 80%.

With `Cc1ccc(-n2nc(-c3ccc(Cl)cc3)nc2CN2CCC(c3ncccn3)CC2)cc1C` [Example 1.73], the percent effect (mortality or growth inhibition) at 200 ppm in test [1] (setting [4]) was at least 80%. Still for that read-out and setting: as for `Cc1ccc(C)c(-n2nc(-c3ccc(Cl)cc3)nc2CN2CCC(c3ncccn3)CC2)c1` [Example 1.74], the figure is at least 80%; as for `COc1cccc(-n2nc(-c3ccc(Cl)cc3)nc2CN2CCC(c3ncccn3)CC2)c1` [Example 1.75], at least 80%. For the compound `COc1ccc(-n2nc(-c3ccc(Cl)cc3)nc2CN2CCC(c3ncccn3)CC2)cc1` [Example 1.79], the percent control (mortality, anti-feedant effect or growth inhibition) at 200 ppm in test [2] was at least 80%. The percent effect (mortality or growth inhibition) at 200 ppm in test [1] (setting [4]) was at least 80%.

In the case of `Cc1cccc(-n2nc(-c3ccc(Cl)cc3)nc2CN2CCC(c3ncccn3)CC2)c1C` [Example 1.82], the percent control (mortality, anti-feedant effect or growth inhibition) at 200 ppm in test [2] is at least 80%. In test [1] (setting [4]), the percent effect (mortality or growth inhibition) at 200 ppm was at least 80%.

For the compound `Clc1ccc(-c2nc(CN3CCC(c4ncccn4)CC3)n(-c3cc(Cl)ccc3Cl)n2)cc1` [Example 1.86], in test [1] (setting [4]), the percent effect (mortality or growth inhibition) at 200 ppm is at least 80%.

Regarding `Cc1ccc(-n2nc(-c3ccc(Cl)cc3)nc2CN2CCC(c3ncccn3)CC2)c(C)c1` [Example 1.87], the percent control (mortality, anti-feedant effect or growth inhibition) at 200 ppm in test [2] was at least 80%. Also, the percent effect (mortality or growth inhibition) at 200 ppm in test [1] (setting [4]) was at least 80%.

For `Fc1ccccc1-n1nc(Cc2ccc(Cl)cc2)nc1CN1CCC(c2ncccn2)CC1` [Example 1.91], the percent control (mortality, anti-feedant effect or growth inhibition) at 200 ppm in test [2] is at least 80%. The percent effect (mortality or growth inhibition) at 200 ppm in test [1] (setting [4]) is at least 80%. In the case of `Cc1ccc(-c2nc(CN3CCC(c4ncccn4)CC3)n(-c3ccccc3F)n2)cc1F` [Example 1.92], in test [2], the percent control (mortality, anti-feedant effect or growth inhibition) at 200 ppm is at least 80%. Also, the percent effect (mortality or growth inhibition) at 200 ppm in test [1] (setting [4]) is at least 80%. Turning to `Fc1ccccc1-n1nc(C2CC2)nc1CN1CCC(c2ncccn2)CC1` [Example 1.93], the percent effect (mortality or growth inhibition) at 200 ppm in test [1] (setting [4]) is at least 80%. As to `Fc1ccccc1-n1nc(-c2ccccc2)nc1CN1CCC(c2ncccn2)CC1` [Example 1.94], in test [2], the percent control (mortality, anti-feedant effect or growth inhibition) at 200 ppm was at least 80%. Besides, the percent effect (mortality or growth inhibition) at 200 ppm in test [1] (setting [4]) was at least 80%.

With `Cc1ccc(-c2nc(CN3CCC(c4ncccn4)CC3)n(-c3ccccc3F)n2)cc1` [Example 1.95], the percent control (mortality, anti-feedant effect or growth inhibition) at 200 ppm in test [2] is at least 80%. Also, the percent effect (mortality or growth inhibition) at 200 ppm in test [1] (setting [4]) is at least 80%. For the compound `Fc1ccccc1-n1nc(-c2cccs2)nc1CN1CCC(c2ncccn2)CC1` [Example 1.96], the percent effect (mortality or growth inhibition) at 200 ppm in test [1] (setting [4]) was at least 80%.

On to `CCc1nc(CN2CCC(c3ncccn3)CC2)n(-c2ccccc2F)n1` [Example 1.99], for which the percent effect (mortality or growth inhibition) at 200 ppm in test [1] (setting [4]) was at least 80%. On the same count and under the same terms, in the case of `CC(C)c1nc(CN2CCC(c3ncccn3)CC2)n(-c2ccccc2F)n1` [Example 1.100] it was at least 80%. As for `COc1ccc(-c2nc(CN3CCC(c4ncccn4)CC3)n(-c3ccccc3F)n2)cc1` [Example 1.101], in test [2], the percent control (mortality, anti-feedant effect or growth inhibition) at 200 ppm is at least 80%. Moreover, the percent effect (mortality or growth inhibition) at 200 ppm in test [1] (setting [4]) is at least 80%. `Fc1ccccc1-n1nc(-c2ccccn2)nc1CN1CCC(c2ncccn2)CC1` [Example 1.102]: the percent effect (mortality or growth inhibition) at 200 ppm in test [1] (setting [4]) was at least 80%. Regarding `Fc1ccccc1-n1nc(-c2ccc(Cl)cc2)nc1CN1CCC(c2ncc[nH]2)CC1` [Example 1.112], in test [1] (setting [4]), the percent effect (mortality or growth inhibition) at 200 ppm is at least 80%. As for `Fc1ccccc1-n1nc(-c2ccc(Cl)cc2)nc1CN1CCC(c2ncon2)CC1` [Example 1.113], in test [2], the percent control (mortality, anti-feedant effect or growth inhibition) at 200 ppm is at least 80%. Further, the percent effect (mortality or growth inhibition) at 200 ppm in test [1] (setting [4]) was at least 80%. In the case of `Fc1ccccc1-n1nc(-c2ccc(Cl)cc2)nc1CN1CCC(c2nccs2)CC1` [Example 1.115], the percent control (mortality, anti-feedant effect or growth inhibition) at 200 ppm in test [2] is at least 80%. Further, the percent effect (mortality or growth inhibition) at 200 ppm in test [1] (setting [4]) is at least 80%. On to `Fc1ccccc1-n1nc(-c2ccc(Cl)cc2)nc1CN1CCC(c2ccncn2)CC1` [Example 1.116], for which the percent control (mortality, anti-feedant effect or growth inhibition) at 200 ppm in test [2] is at least 80%. Further, in test [1] (setting [4]), the percent effect (mortality or growth inhibition) at 200 ppm was at least 80%. With `Cn1ccnc1C1CCN(Cc2nc(-c3ccc(Cl)cc3)nn2-c2ccccc2F)CC1` [Example 1.117], in test [2], the percent control (mortality, anti-feedant effect or growth inhibition) at 200 ppm is at least 80%. Also, the percent effect (mortality or growth inhibition) at 200 ppm in test [1] (setting [4]) was at least 80%.

For `Cc1nnc(C2CCN(Cc3nc(-c4ccc(Cl)cc4)nn3-c3ccccc3F)CC2)o1` [Example 1.118], in test [1] (setting [4]), the percent effect (mortality or growth inhibition) at 200 ppm was at least 80%. Turning to `Fc1ccccc1-n1nc(-c2ccc(Cl)cc2)nc1CN1CCC(c2cscn2)CC1` [Example 1.119], in test [2], the percent control (mortality, anti-feedant effect or growth inhibition) at 200 ppm is at least 80%. Besides, the percent effect (mortality or growth inhibition) at 200 ppm in test [1] (setting [4]) was at least 80%.

Turning to `Fc1ccccc1-n1nc(-c2ccc(Cl)cc2)nc1CN1CCC(c2ncno2)CC1` [Example 1.121], in test [1] (setting [4]), the percent effect (mortality or growth inhibition) at 200 ppm is at least 80%. Take `Cc1ccnc(C2CCN(Cc3nc(-c4ccc(Cl)cc4)nn3-c3ccccc3F)CC2)n1` [Example 1.125]: the percent control (mortality, anti-feedant effect or growth inhibition) at 200 ppm in test [2] was at least 80%. Moreover, the percent effect (mortality or growth inhibition) at 200 ppm in test [1] (setting [4]) was at least 80%. Take `Fc1ccccc1-n1nc(-c2ccc(Cl)cc2)nc1CN1CC=C(c2ccc(Cl)cn2)CC1` [Example 3.1]: the percent effect (mortality or growth inhibition) at 200 ppm in test [1] was at least 80%. Take `Fc1ccccc1-n1nc(-c2ccc(Cl)cc2)nc1CN1CCC(c2cc(Cl)cc(Cl)c2)(C(F)(F)F)C1` (stereo not shown) [Example 5.2]: the percent effect (mortality or growth inhibition) at 200 ppm in test [3] was at least 80%. As to `Fc1ccccc1-n1nc(-c2ccc(Cl)cc2)nc1CN1CCC2(CC1)CC(C1CC1)=NO2` [Example 5.4], the percent control (mortality, anti-feedant effect or growth inhibition) at 200 ppm in test [2] is at least 80%. Further, the percent effect (mortality or growth inhibition) at 200 ppm in test [1] (setting [4]) is at least 80%. As to `Fc1ccccc1-n1nc(-c2ccc(Cl)cc2)nc1CN1CCC2(CC1)CC(C(F)(F)F)=NO2` [Example 5.5], the percent control (mortality, anti-feedant effect or growth inhibition) at 200 ppm in test [2] was at least 80%. The percent effect (mortality or growth inhibition) at 200 ppm in test [1] (setting [4]) was at least 80%. In the case of `CCC1CCCCN1Cc1nc(-c2ccc(Cl)cc2)nn1-c1ccccc1F` (stereo not shown) [Example 5.16], the percent effect (mortality or growth inhibition) at 200 ppm in test [1] (setting [4]) was at least 80%. The same measure, in the same setting: in the case of `CCOC(=O)C1CCCN(Cc2nc(-c3ccc(Cl)cc3)nn2-c2ccccc2F)C1` (stereo not shown) [Example 5.17] it was at least 80%; in that of `CCC1CCCN(Cc2nc(-c3ccc(Cl)cc3)nn2-c2ccccc2F)C1` (stereo not shown) [Example 5.21], at least 80%; in that of `CCOC(=O)C1CCCCN1Cc1nc(-c2ccc(Cl)cc2)nn1-c1ccccc1F` (stereo not shown) [Example 5.22], at least 80%. As to `CC1CCCN1Cc1nc(-c2ccc(Cl)cc2)nn1-c1ccccc1F` (stereo not shown) [Example 5.30], the percent effect (mortality or growth inhibition) at 200 ppm in test [1] (setting [4]) was at least 80%.

The values above are taken from US20190161499A1, “PESTICIDALLY ACTIVE 1,2,4-TRIAZOLE DERIVATIVES” (SYNGENTA PARTICIPATIONS AG, priority 2015, published 2019).
